Results reported in PubChem BioAssay (NCI).
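Briefly, cells in 96-well plates were exposed to five compound concentrations for 48 h, and endpoints were estimated by linear interpolation. TGI denotes the concentration required for complete inhibition of growth.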

What was measured:
Assay in all cases: NCI tumour cell line growth inhibition, 48 h
[1] = system: IGROV1 ovarian
[2] = system: HOP-18 NSCLC
[3] = system: KM12 colon
[4] = system: OVCAR-3 ovarian
[5] = system: XF 498 CNS
[6] = system: HCC-2998 colon
[7] = system: SK-OV-3 ovarian
[8] = system: OVCAR-5 ovarian
[9] = system: LOX IMVI melanoma
[10] = system: M14 melanoma
[11] = system: UACC-257 melanoma
[12] = system: TK-10 renal
[13] = system: ACHN renal
[14] = system: DMS 114 small cell lung
[15] = system: CAKI-1 renal
[16] = system: SNB-19 CNS
[17] = system: MALME-3M melanoma
[18] = system: SK-MEL-2 melanoma
[19] = system: OVCAR-4 ovarian
[20] = system: RPMI-8226 leukemia
[21] = system: KM20L2 colon
[22] = system: MOLT-4 leukemia
[23] = system: SF-539 CNS
[24] = system: UO-31 renal
[25] = system: HT29 colon
[26] = system: SN12C renal
[27] = system: NCI-H460 lung
[28] = system: OVCAR-8 ovarian
[29] = system: UACC-62 melanoma
[30] = system: DLD-1 colon
[31] = system: SF-268 CNS
[32] = system: A549 NSCLC
[33] = system: 786-0 renal
[34] = system: NCI-H522 lung
[35] = system: SF-295 CNS
[36] = system: SNB-75 CNS
[37] = system: K-562 leukemia
[38] = system: HOP-62 NSCLC
[39] = system: HCT-15 colon
[40] = system: CCRF-CEM leukemia
[41] = system: RXF 393 renal
[42] = system: DMS 273 small cell lung
[43] = system: EKVX NSCLC
[44] = system: NCI-H226 lung
[45] = system: SW-620 colon
[46] = system: HL-60(TB) leukemia
[47] = system: COLO 205 colon
[48] = system: M19-MEL melanoma
[49] = system: SK-MEL-28 melanoma
[50] = system: NCI-H23 lung
[51] = system: LXFL 529 NSCLC
[52] = system: SK-MEL-5 melanoma
[53] = system: RXF-631 renal
[54] = system: U251 CNS
[55] = system: HOP-92 NSCLC
[56] = system: SNB-78 CNS
[57] = system: SR leukemia
[58] = system: A498 renal
[59] = system: HCT-116 colon

`N#CNC1=NC(N)C(c2nc3ccccc3[nH]2)=C(CCCC(=O)Nc2cccc([N+](=O)[O-])c2)N1` (centres undefined) gave a TGI [1] greater than 100 µM, a TGI [2] greater than 100 µM and a TGI [3] greater than 100 µM. The TGI [4] was greater than 100 µM, the TGI [5] was greater than 100 µM and the TGI [6] was greater than 100 µM. For the same molecule, the TGI [7] was greater than 100 µM, the TGI [8] was greater than 100 µM and the TGI [9] was greater than 100 µM. For the same molecule, the TGI [10] was greater than 100 µM, the TGI [11] was greater than 100 µM and the TGI [12] was greater than 100 µM. For the same molecule, the TGI [13] was greater than 100 µM, the TGI [14] was greater than 100 µM and the TGI [15] was greater than 100 µM. It also gave a TGI [16] greater than 100 µM, a TGI [17] greater than 100 µM and a TGI [18] greater than 100 µM. It also gave a TGI [19] greater than 100 µM, a TGI [20] greater than 100 µM and a TGI [21] greater than 100 µM. It also gave a TGI [22] greater than 100 µM, a TGI [23] greater than 100 µM and a TGI [24] greater than 100 µM. The TGI [25] was greater than 100 µM, the TGI [26] was greater than 100 µM and the TGI [27] was greater than 100 µM. The TGI [28] was greater than 100 µM, the TGI [29] was greater than 100 µM and the TGI [30] was greater than 100 µM. For the same molecule, the TGI [31] was greater than 100 µM, the TGI [32] was greater than 100 µM and the TGI [33] was greater than 100 µM. It also gave a TGI [34] greater than 100 µM, a TGI [35] greater than 100 µM and a TGI [36] greater than 100 µM. For the same molecule, the TGI [37] was greater than 100 µM, the TGI [38] was greater than 100 µM and the TGI [39] was greater than 100 µM. For the same molecule, the TGI [40] was greater than 100 µM, the TGI [41] was greater than 100 µM and the TGI [42] was greater than 100 µM. It also gave a TGI [43] greater than 100 µM, a TGI [44] greater than 100 µM and a TGI [45] greater than 100 µM. For the same molecule, the TGI [46] was greater than 100 µM, the TGI [47] was greater than 100 µM and the TGI [48] was greater than 100 µM. The TGI [49] was greater than 100 µM, the TGI [50] was greater than 100 µM and the TGI [51] was greater than 100 µM. It also gave a TGI [52] greater than 100 µM.

Molecule `C[C@H]1C(=O)c2c(cc(O)c(C3OC(CO)C(O)C(O)C3O)c2O)OC1c1ccc(O)c(O)c1` (some centres undefined) has a TGI [1] greater than 100 µM, a TGI [3] greater than 100 µM and a TGI [53] greater than 100 µM. The TGI [7] was greater than 100 µM, the TGI [8] was greater than 100 µM and the TGI [10] was greater than 100 µM. It also gave a TGI [11] greater than 100 µM, a TGI [54] greater than 100 µM and a TGI [12] greater than 100 µM. It also gave a TGI [13] greater than 100 µM, a TGI [14] greater than 100 µM and a TGI [16] greater than 100 µM. The TGI [55] was greater than 100 µM, the TGI [22] was greater than 100 µM and the TGI [24] was greater than 100 µM. The TGI [25] was greater than 100 µM, the TGI [27] was greater than 100 µM and the TGI [28] was greater than 100 µM. The TGI [56] was greater than 100 µM, the TGI [29] was greater than 100 µM and the TGI [57] was greater than 100 µM. For the same molecule, the TGI [32] was greater than 100 µM, the TGI [34] was greater than 100 µM and the TGI [35] was greater than 100 µM. It also gave a TGI [38] greater than 100 µM, a TGI [40] greater than 100 µM and a TGI [41] greater than 100 µM. It also gave a TGI [58] greater than 100 µM, a TGI [43] greater than 100 µM and a TGI [44] of 98.9 µM. The TGI [59] was greater than 100 µM, the TGI [46] was greater than 100 µM and the TGI [48] was greater than 100 µM. It also gave a TGI [49] greater than 100 µM and a TGI [50] greater than 100 µM.

In the case of `Cc1ccc(C2=Nc3ccccc3SC(c3cccc4c3OCO4)C2)cc1` (centres undefined), the TGI [1] is reported as 42.4 µM, the TGI [2] is reported as 38.4 µM and the TGI [3] is reported as 32.5 µM. It also gave a TGI [4] of 28.5 µM, a TGI [5] of 29 µM and a TGI [6] of 41.3 µM. The TGI [7] was 76.3 µM, the TGI [8] was 51.5 µM and the TGI [9] was 31.1 µM. For the same molecule, the TGI [10] was 34.9 µM, the TGI [11] was 38.4 µM and the TGI [12] was 40.3 µM. For the same molecule, the TGI [13] was 53.8 µM, the TGI [15] was 30 µM and the TGI [16] was 30.7 µM. It also gave a TGI [17] of 56 µM, a TGI [18] of 44 µM and a TGI [19] of 33.7 µM. The TGI [20] was 54.2 µM, the TGI [21] was 41.2 µM and the TGI [22] was 55.7 µM. It also gave a TGI [23] of 40.2 µM, a TGI [24] of 27.3 µM and a TGI [25] of 33.2 µM. It also gave a TGI [26] of 41 µM, a TGI [27] greater than 100 µM and a TGI [28] of 65.3 µM. It also gave a TGI [29] of 41.9 µM, a TGI [30] of 90.3 µM and a TGI [31] of 45.6 µM. The TGI [32] was 72.4 µM, the TGI [33] was 39.9 µM and the TGI [34] was 31 µM. The TGI [35] was 45.6 µM, the TGI [36] was 28.8 µM and the TGI [37] was 38.3 µM. The TGI [38] was greater than 100 µM, the TGI [39] was 54.1 µM and the TGI [40] was 37.9 µM. For the same molecule, the TGI [58] was 43.6 µM, the TGI [42] was 40.2 µM and the TGI [43] was 38.7 µM. For the same molecule, the TGI [44] was 37 µM, the TGI [45] was 39.8 µM and the TGI [46] was 39 µM. The TGI [47] was 35.6 µM, the TGI [48] was 36.3 µM and the TGI [49] was 32.9 µM. The TGI [50] was 39.8 µM, the TGI [51] was 28.9 µM and the TGI [52] was 31.1 µM.

With `COc1ccc(/C=C/c2cc(OC)c(OCc3ccccc3)c(OC)c2)cc1` the TGI [1] was greater than 100 µM, the TGI [3] was greater than 100 µM and the TGI [4] was greater than 100 µM. It also gave a TGI [53] greater than 100 µM, a TGI [5] greater than 100 µM and a TGI [6] greater than 100 µM. It also gave a TGI [7] greater than 100 µM, a TGI [8] of 94.5 µM and a TGI [10] greater than 100 µM. The TGI [11] was greater than 100 µM, the TGI [54] was greater than 100 µM and the TGI [13] was greater than 100 µM. It also gave a TGI [14] greater than 100 µM, a TGI [15] greater than 100 µM and a TGI [16] greater than 100 µM. It also gave a TGI [17] greater than 100 µM, a TGI [18] greater than 100 µM and a TGI [19] greater than 100 µM. The TGI [55] was greater than 100 µM, the TGI [20] was greater than 100 µM and the TGI [21] was greater than 100 µM. It also gave a TGI [22] greater than 100 µM, a TGI [23] greater than 100 µM and a TGI [24] greater than 100 µM. It also gave a TGI [25] greater than 100 µM, a TGI [26] greater than 100 µM and a TGI [27] greater than 100 µM. The TGI [28] was greater than 100 µM, the TGI [56] was greater than 100 µM and the TGI [29] was greater than 100 µM. The TGI [30] was greater than 100 µM, the TGI [57] was greater than 100 µM and the TGI [31] was greater than 100 µM. For the same molecule, the TGI [32] was greater than 100 µM, the TGI [33] was greater than 100 µM and the TGI [34] was greater than 100 µM. For the same molecule, the TGI [36] was greater than 100 µM, the TGI [37] was greater than 100 µM and the TGI [38] was greater than 100 µM. It also gave a TGI [40] greater than 100 µM, a TGI [58] greater than 100 µM and a TGI [42] greater than 100 µM. The TGI [43] was greater than 100 µM, the TGI [44] was greater than 100 µM and the TGI [59] was greater than 100 µM. The TGI [45] was greater than 100 µM, the TGI [47] was greater than 100 µM and the TGI [48] was greater than 100 µM. It also gave a TGI [49] greater than 100 µM, a TGI [50] greater than 100 µM and a TGI [51] greater than 100 µM.
